Results published in US4753953A, “Pyridonecarboxylic acid derivatives and antibacterial pharmaceutical compositions thereof” (priority 1985, dated 1988).
≈ marks a conversion by molar mass, not a printed value. Read-outs that look alike come from different tables or passages of the source.

Assays:
Assay in all cases: MIC, in vitro antibacterial activity (standard strains)
[1] = test system: Staphylococcus aureus 209 P; type: cell-based; details: Staphylococcus aureus, 209P; 10^6 cells/ml; Gram +; read-out: MIC
S. aureus Smith = type: cell-based, Staphylococcus aureus; details: Staphylococcus aureus; 10^6 cells/ml; Gram +; read-out: MIC
[2] = test system: Streptococcus pyogenes (S-8); type: cell-based; details: Streptococcus pyogenes; 10^6 cells/ml; Gram +; read-out: MIC
S. pyogenes IID 692 = type: cell-based, Streptococcus pyogenes; details: Streptococcus pyogenes, IID692; 10^6 cells/ml; Gram +; read-out: MIC
[3] = test system: Escherichia coli NIHJ JC-2; type: cell-based; details: Escherichia coli, NIHJJC2
[4] = test system: Klebsiella pneumoniae KY(GN)6445; type: cell-based; details: Klebsiella pneumoniae; 10^6 cells/ml; Gram -; read-out: MIC
[5] = test system: Enterobacter cloacae IID 977; type: cell-based; details: Enterobacter cloacae, IID977; 10^6 cells/ml; Gram -; read-out: MIC
Shigella sonnei IID 969 = type: cell-based; details: Shigella sonnei, IID969; 10^6 cells/ml; Gram -; read-out: MIC
Protocol: Minimal inhibitory concentrations (MICs) were determined in accordance with the method recommended by Japan Society of Chemotherapy.

[6] = test system: Salmonella enteritidis IID 604; type: cell-based; details: Salmonella enterica; 10^6 cells/ml; Gram -; read-out: MIC
P. cepacia GIFU 518 = type: cell-based; details: Burkholderia cepacia, GIFU518
P. maltophilia GIFU 2491 = type: cell-based; details: Stenotrophomonas maltophilia, GIFU2491; 10^6 cells/ml; Gram -; read-out: MIC
[7] = test system: Acinetobacter anitratus IID 876; type: cell-based; details: Acinetobacter calcoaceticus, IID876; 10^6 cells/ml; Gram -; read-out: MIC
[8] = test system: Alcaligenes faecalis 0114002; type: cell-based; details: Alcaligenes faecalis, 0114002; 10^6 cells/ml; Gram -; read-out: MIC
B. fragilis 25285 = type: cell-based, Bacteroides fragilis; details: Bacteroides fragilis, 25285; 10^6 cells/ml; Gram -; read-out: MIC
E. limosum KYA 8486 = type: cell-based; details: Eubacterium limosum, KYA8486; 10^6 cells/ml; Gram +; read-out: MIC
[9] = test system: Clostridium difficile I-E; type: cell-based; details: Clostridioides difficile; 10^6 cells/ml; Gram +
[10] = test system: Veillonella parvula KYA 10790; type: cell-based; details: Veillonella parvula, KYA10790; 10^6 cells/ml; Gram -; read-out: MIC
[11] = 10^6 cells/ml, Gram -, read-out: MIC

| SMILES | MIC [1] [µg/mL] | MIC (S. aureus Smith) [µg/mL] | MIC [2] [µg/mL] | MIC (S. pyogenes IID 692) [µg/mL] | MIC [3, 11] [µg/mL] | MIC [4] [µg/mL] | MIC [5] [µg/mL] | MIC (Shigella sonnei IID 969) [µg/mL] | MIC [6] [µg/mL] | MIC (P. cepacia GIFU 518) [µg/mL] | MIC (P. maltophilia GIFU 2491) [µg/mL] | MIC [7] [µg/mL] | MIC [8] [µg/mL] | MIC (B. fragilis 25285) [µg/mL] | MIC (E. limosum KYA 8486) [µg/mL] | MIC [9] [µg/mL] | MIC [10] [µg/mL] | MIC [3] [µg/mL] | MIC (P. cepacia GIFU 518; [11]) [µg/mL] |
| --- | --- | --- | --- | --- | --- | --- | --- | --- | --- | --- | --- | --- | --- | --- | --- | --- | --- | --- | --- |
| CCNCC1CN(c2c(F)cc3c(=O)c(C(=O)O)cn(C4CC4)c3c2F)CC1C (centres unmarked) [Example 15, 1-Cyclopropyl-7-(3-ethylaminomethyl-4-methyl-1-pyrrolidinyl)-6,8-difluoro-1,4-dihydro-4-oxo-3-quinolinecarboxylic acid] | 0.05 (≈ 0.123 µM) | 0.05 (≈ 0.123 µM) | 0.1 (≈ 0.247 µM) | 0.1 (≈ 0.247 µM) | 0.05 (≈ 0.123 µM) | 0.05 (≈ 0.123 µM) | 0.2 (≈ 0.493 µM) | 0.05 (≈ 0.123 µM) | 0.2 (≈ 0.493 µM) | 0.78 (≈ 1.92 µM) | 0.39 (≈ 0.962 µM) | 0.1 (≈ 0.247 µM) | 0.78 (≈ 1.92 µM) | 0.39 (≈ 0.962 µM) | 1.56 (≈ 3.85 µM) | 0.78 | 0.78 (≈ 1.92 µM) |  |  |
| C[C@@H]1CN(c2c(F)cc3c(=O)c(C(=O)O)cn(C4CC4)c3c2Br)C[C@H]1N (relative stereo) [Example 32, 7-(trans-3-Amino-4-methyl-1-pyrrolidinyl)-8-bromo-1-cyclopropyl-6-fluoro-1,4-dihydro-4-oxo-3-quinolinecarboxylic acid] | 0.025 (≈ 0.0589 µM) | 0.025 (≈ 0.0589 µM) | 0.1 (≈ 0.236 µM) | 0.2 (≈ 0.471 µM) | 0.0063 (≈ 0.0148 µM) | 0.025 (≈ 0.0589 µM) | 0.05 (≈ 0.118 µM) | 0.0063 (≈ 0.0148 µM) | 0.05 (≈ 0.118 µM) |  | 0.05 (≈ 0.118 µM) | 0.025 (≈ 0.0589 µM) | 0.1 (≈ 0.236 µM) | 0.1 (≈ 0.236 µM) | 0.1 (≈ 0.236 µM) | 0.78 | 0.1 (≈ 0.236 µM) |  |  |
| C[C@H]1CN(c2c(F)cc3c(=O)c(C(=O)O)cn(CCF)c3c2Cl)C[C@H]1N (relative stereo) [Example 27, 7-(cis-3-Amino-4-methyl-1-pyrrolidinyl)-8-chloro-6-fluoro-1-(2-fluoroethyl)-1,4-dihydro-4-oxo-3-quinolinecarboxylic acid] | 0.2 (≈ 0.518 µM) | 0.2 (≈ 0.518 µM) | 0.78 (≈ 2.02 µM) | 0.78 (≈ 2.02 µM) | 0.05 (≈ 0.13 µM) | 0.1 (≈ 0.259 µM) | 0.1 (≈ 0.259 µM) | 0.78 (≈ 2.02 µM) | 0.1 (≈ 0.259 µM) | 0.78 (≈ 2.02 µM) | 1.56 (≈ 4.04 µM) | 1.56 (≈ 4.04 µM) | 0.78 (≈ 2.02 µM) | 1.56 (≈ 4.04 µM) | 6.25 (≈ 16.2 µM) | 6.25 | 0.39 (≈ 1.01 µM) |  |  |
| C[C@H]1CN(c2c(F)cc3c(=O)c(C(=O)O)cn(C4CC4)c3c2F)C[C@H]1N.Cl (relative stereo) [Example 20, 7-(cis-3-Amino-4-methyl-1-pyrrolidinyl)-1-cyclopropyl-6,8-difluoro-1,4-dihydro-4-oxo-3-quinolinecarboxylic acid hydrochloride] | 0.05 | 0.05 | 0.2 | 0.39 |  | 0.025 | 0.05 | 0.0125 | 0.05 |  | 0.39 | 0.05 | 0.39 | 0.39 |  | 1.56 | 0.2 | 0.0125 | 0.39 |
| C[C@H]1CN(c2c(F)cc3c(=O)c(C(=O)O)cn(CCF)c3c2F)C[C@H]1N (relative stereo) [Example 25, 7-(cis-b 3-Amino-4-methyl-1-pyrrolidinyl)-6,8-difluoro-1-(2-fluoroethyl)-1,4-dihydro-4-oxo-3-quinolinecarboxylic acid] | 0.2 (≈ 0.542 µM) | 0.39 (≈ 1.06 µM) | 0.78 (≈ 2.11 µM) | 0.78 (≈ 2.11 µM) | 0.05 (≈ 0.135 µM) | 0.1 (≈ 0.271 µM) | 0.1 (≈ 0.271 µM) | 0.78 (≈ 2.11 µM) | 0.1 (≈ 0.271 µM) | 1.56 (≈ 4.22 µM) | 1.56 (≈ 4.22 µM) | 1.56 (≈ 4.22 µM) | 0.78 (≈ 2.11 µM) | 3.13 (≈ 8.47 µM) | 6.25 (≈ 16.9 µM) | 6.25 | 0.78 (≈ 2.11 µM) |  |  |
